# Legend:
# [1] = target: T1, soluble guanylate cyclase (sGC) (Bos taurus, UniProt P16068+P19687); test: Activation of soluble guanylate cyclase (cGMP enzyme immunoassay); assay type: biochemical; details: sGC isolated from bovine lung; test substance 50 μM; 5% DMSO; 37° C., 15 to 20 minutes; [cGMP]test substance/[cGMP]control (basal enzyme activity)
# T1 construct: The sGC employed had been isolated from bovine lung; from tissue; host or cells: bovine lung
# T1 sequence (P19687 1-691): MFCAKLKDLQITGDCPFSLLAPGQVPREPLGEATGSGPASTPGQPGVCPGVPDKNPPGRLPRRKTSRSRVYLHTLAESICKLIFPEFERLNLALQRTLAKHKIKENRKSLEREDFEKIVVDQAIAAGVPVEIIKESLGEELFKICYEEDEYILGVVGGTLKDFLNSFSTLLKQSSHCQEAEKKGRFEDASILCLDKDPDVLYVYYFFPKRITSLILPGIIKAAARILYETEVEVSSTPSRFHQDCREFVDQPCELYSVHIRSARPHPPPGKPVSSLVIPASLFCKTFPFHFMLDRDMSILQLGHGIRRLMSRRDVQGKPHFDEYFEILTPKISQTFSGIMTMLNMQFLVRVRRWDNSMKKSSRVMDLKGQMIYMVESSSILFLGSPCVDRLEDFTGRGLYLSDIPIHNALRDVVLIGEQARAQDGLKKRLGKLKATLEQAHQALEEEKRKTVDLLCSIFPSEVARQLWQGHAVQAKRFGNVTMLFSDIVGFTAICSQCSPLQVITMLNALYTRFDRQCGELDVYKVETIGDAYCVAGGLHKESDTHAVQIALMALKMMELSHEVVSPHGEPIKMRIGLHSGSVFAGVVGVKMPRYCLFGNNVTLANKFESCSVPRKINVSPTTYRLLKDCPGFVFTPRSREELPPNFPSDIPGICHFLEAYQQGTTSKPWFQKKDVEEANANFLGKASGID
# T1 sequence (P16068 1-619): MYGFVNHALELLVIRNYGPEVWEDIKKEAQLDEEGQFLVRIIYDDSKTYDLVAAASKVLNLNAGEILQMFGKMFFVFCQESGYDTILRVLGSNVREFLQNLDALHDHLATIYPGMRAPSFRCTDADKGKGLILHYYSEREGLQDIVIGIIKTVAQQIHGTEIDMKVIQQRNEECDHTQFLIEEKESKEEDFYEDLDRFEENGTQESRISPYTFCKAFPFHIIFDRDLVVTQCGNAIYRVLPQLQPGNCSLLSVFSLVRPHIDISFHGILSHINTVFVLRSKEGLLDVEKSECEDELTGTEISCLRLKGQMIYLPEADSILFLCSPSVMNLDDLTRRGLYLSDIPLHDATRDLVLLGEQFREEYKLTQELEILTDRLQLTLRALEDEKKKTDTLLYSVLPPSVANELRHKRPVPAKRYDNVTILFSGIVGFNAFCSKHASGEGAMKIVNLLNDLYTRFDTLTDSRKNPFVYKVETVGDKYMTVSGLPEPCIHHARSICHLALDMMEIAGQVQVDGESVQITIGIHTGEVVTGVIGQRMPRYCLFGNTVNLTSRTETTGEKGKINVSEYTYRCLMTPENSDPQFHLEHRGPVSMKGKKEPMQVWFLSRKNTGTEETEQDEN
# Description: Activation of Soluble Guanylate Cyclase
# The activation of soluble guanylate cyclase (sGC), which catalyzes the conversion of guanosine triphosphate (GTP) to cyclic guanosine monophosphate (cGMP) and pyrophosphate, by the compounds according to the invention was quantified with the aid of an enzyme immunoassay (EIA) from Amersham. For this, the test substances were first incubated with sGC in microtiter plates and then the quantity of the resulting cGMP was determined.
# The test solutions (100 μl per well) contained 50 mM triethanolamine (TEA) buffer (pH 7.5), 3 mM MgCl2, 3 mM reduced glutathione (GSH), 0.1 mM GTP, 1 mM 3-isobutyl-1-methylxanthine (IBMX), suitably diluted enzyme solution and the test substance or, in the control experiments, solvent. The test substances were dissolved in dimethyl sulfoxide (DMSO) and the solution was diluted with DMSO/water such that the final concentration c of test substance in the test batch was 50 μM. The DMSO concentration in the test batch was 5% (v/v). The reaction was started by addition of the sGC. The reaction mix was incubated at 37° C. for 15 to 20 minutes and then stopped by ice-cooling and addition of the stop reagent (50 mM EDTA, pH 8.0). An aliquot of 50 μl was taken and employed for the determination of the cGMP content using the acetylation protocol of the Amersham cGMP EIA kit. The absorption of the samples was measured at 450 nm (reference wavelength 620 nm) in a microtiter plate reading apparatus. The cGMP concentration was determined by means of a calibration curve, which was obtained under the same experimental conditions.
# n-fold stimulation=[cGMP]test substance/[cGMP]control.
Structure (SMILES),n-fold stimulation at c = 50 μM [1] [fold],melting point [°C]
"CCN(CC)c1nc(-c2cccc(Cl)c2)nc2c1CCC2.Cl [Example 25, 2-(3-Chlorophenyl)-4-diethylamino-6,7-dihydro-5H-cyclopenta[d]pyrimidine hydrochloride]",6,185
"Clc1cccc(-c2nc3c(c(NC4CCCC4)n2)CCC3)c1 [Example 32, 2-(3-Chlorophenyl)-4-cyclopentylamino-6,7-dihydro-5H-cyclopenta[d]pyrimidine]",15,129
"CCCN(CCC)c1nc(-c2ccc(Cl)cc2)nc2c1CCC2 [Example 35, 2-(4-Chlorophenyl)-4-dipropylamino-6,7-dihydro-5H-cyclopenta[d]pyrimidine]",7,114
"CCCCNc1nc(-c2ccc(C)cc2)nc2c1CCC2 [Example 40, 2-(4-Methylphenyl)-4-butylamino-6,7-dihydro-5H-cyclopenta[d]pyrimidine]",8,133
"Cc1ccc(-c2nc3c(c(NC4CCCCC4)n2)CCC3)cc1 [Example 42, 2-(4-Methylphenyl)-4-cyclohexylamino-6,7-dihydro-5H-cyclopenta[d]pyrimidine]",10,163
"Cc1ccc(-c2nc3c(c(N[C@H]4CC[C@H](O)CC4)n2)CCC3)cc1 [Example 43, 2-(4-Methylphenyl)-4-(trans-4-hydroxycyclohexylamino)-6,7-dihydro-5H-cyclopenta[d]pyrimidine]",23,191
"CCCCNc1nc(-c2cc(Cl)cc(Cl)c2)nc2c1CCC2 [Example 49, 2-(3,5-Dichlorophenyl)-4-butylamino-6,7-dihydro-5H-cyclopenta[d]pyrimidine]",5,93
"Clc1cc(Cl)cc(-c2nc3c(c(NC4CCCC4)n2)CCC3)c1 [Example 50, 2-(3,5-Dichlorophenyl)-4-cyclopentylamino-6,7-dihydro-5H-cyclopenta[d]-pyrimidine]",8,153

# Second part, the compound after the results:
n-fold stimulation at c = 50 μM [1] [fold],melting point [°C],Structure (SMILES)
7,,"Clc1ccc(-c2nc3c(c(NC4CCCC4)n2)CCC3)cc1 [Example 15, 2-(4-Chlorophenyl)-4-cyclopentylamino-6,7-dihydro-5H-cyclopenta[d]pyrimidine]"
34,,"CS(=O)(=O)O.O[C@H]1CC[C@H](Nc2nc(-c3cc(Cl)cc(Cl)c3)nc3c2CCC3)CC1 [Example 16, 2-(3,5-Dichlorophenyl)-4-(trans-4-hydroxycyclohexylamino)-6,7-dihydro-5H-cyclopenta[d]pyrimidine methanesulfonic acid salt]"
5,185,"CCN(CC)c1nc(-c2ccc(Cl)cc2)nc2c1CCC2.Cl [Example 26, 2-(4-Chlorophenyl)-4-diethylamino-6,7-dihydro-5H-cyclopenta[d]pyrimidine hydrochloride]"
6,121,"CCCCNc1nc(-c2ccc(Cl)cc2)nc2c1CCC2 [Example 30, 2-(4-Chlorophenyl)-4-butylamino-6,7-dihydro-5H-cyclopenta[d]pyrimidine]"
5,,"CCCCNc1nc(-c2cccc(Cl)c2)nc2c1CCC2 [Example 33, 2-(3-Chlorophenyl)-4-butylamino-6,7-dihydro-5H-cyclopenta[d]pyrimidine]"
35,216,"O[C@H]1CC[C@H](Nc2nc(-c3ccc(Cl)cc3)nc3c2CCC3)CC1 [Example 34, 2-(4-Chlorophenyl)-4-(trans-4-hydroxycyclohexylamino)-6,7-dihydro-5H-cyclopenta[d]pyrimidine]"
9,183,"Cc1ccc(-c2nc3c(c(NC4CCCC4)n2)CCC3)cc1 [Example 41, 2-(4-Methylphenyl)-4-cyclopentylamino-6,7-dihydro-5H-cyclopenta[d]pyrimidine]"
7,117,"CCCN(CCC)c1nc(-c2ccc(C)cc2)nc2c1CCC2 [Example 45, 2-(4-Methylphenyl)-4-dipropylamino-6,7-dihydro-5H-cyclopenta[d]pyrimidine]"
9,142,"OCCCCNc1nc(-c2cc(Cl)cc(Cl)c2)nc2c1CCC2 [Example 48, 2-(3,5-Dichlorophenyl)-4-(4-hydroxybutylamino)-6,7-dihydro-5H-cyclopenta[d]-pyrimidine]"

# — US6627628B1, “Substituted 4-amino-2-aryl-cyclopenta[d]pyrimidines, their production and use and pharmaceutical preparations containing same” (Aventis Pharma Deutschland, GmbH, priority 1998, dated 2003)
